Laboratory results: US20230357233A1, “HETEROARYL COMPOUNDS, PREPARATION METHODS AND USES THEREOF” (INVENTISBIO CO., LTD., priority 2020, published 2023)

Tests used:
Ba/F3_KRAS^G12D cells = Ba/F3_KRAS^G12D cells (Homo sapiens, UniProt P01116, G12D, cells depend on it); experiment: Ba/F3 KRAS^G12D cell proliferation assay (cell-titer Glo); format: cell-based; conditions: cell growth inhibition, treated with the compounds for 3 days, read-out: BaF3_KRAS^G12D IC50
Experimental: Cells were seeded at a density of 5×10^3 per well into 96-well plate and incubated overnight. Serial diluted compounds were added to each well. Cells were treated with the compounds for 3 days, after which cell-titer Glo reagent (Promega #G7572) was used to assess cell proliferation. The luminescence signal was then collected on Tecan Spark plate reader. […] Cell growth inhibition of IC50 is calculated with the equation of Y=Bottom+(Top−Bottom)/(1+10^((LogIC50−X)*HillSlope))

[1] = molecular target: recombinant human KRAS^G12D protein (Homo sapiens, UniProt P01116, G12D); experiment: Temperature-dependent Fluorescence (TdF) KRAS^G12D protein binding assay; conditions: 6 μM KRAS^G12D Protein, 10 μM compound, Sypro Orange; Kd calculated from fluorescent shift
recombinant human KRAS^G12D protein, sequence (P01116 1-188 isoform P01116-2 G12D): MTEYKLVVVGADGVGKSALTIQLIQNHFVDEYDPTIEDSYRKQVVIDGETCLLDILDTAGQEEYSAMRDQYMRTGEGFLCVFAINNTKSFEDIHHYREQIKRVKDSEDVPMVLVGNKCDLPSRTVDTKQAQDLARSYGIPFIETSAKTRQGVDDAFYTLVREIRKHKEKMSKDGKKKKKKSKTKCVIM
Experimental: The TdF assay was conducted in the 96-well-based real-time fluorescence plate reader (ABI 7500 or Roche LightCycler 480). Fluorescent dye Sypro Orange (Sigma) was used to monitor the protein folding-unfolding transition. Protein-compound binding was gauged by the shift in the unfolding transition temperature (ΔTm) acquired with and without compound. […] The sample plate was heated from 30° C. to 95° C. with a thermal ramping rate of […], taking a fluorescence reading every 0.4° C. using a CY3 channel matching the excitation and emission wavelengths of Sypro Orange (λ ex 470 nm; λ em 570 nm). Binding affinity (Kd value) was calculated based on the degree of fluorescent shift of the protein with and without compound.

Ba/F3_KRAS^G12D cells, sequence (P01116 whole entry G12D): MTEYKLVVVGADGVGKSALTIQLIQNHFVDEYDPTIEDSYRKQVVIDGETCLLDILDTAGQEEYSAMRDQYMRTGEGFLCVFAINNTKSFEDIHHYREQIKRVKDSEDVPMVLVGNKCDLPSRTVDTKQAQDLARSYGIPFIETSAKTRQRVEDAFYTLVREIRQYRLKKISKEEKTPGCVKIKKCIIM

Row | SMILES | GI50 (Ba/F3_KRAS^G12D cells) [nM] | Kd [1] [µM]
1 | Clc1cccc2cccc(-c3ncc4c(N5CC6CCC(C5)N6)nc(OCC56CCCN5CCC6)cc4n3)c12 [Compound 46] | 500 to 5000 | > 5
2 | CN1CCC[C@H]1Cn1c(=O)nc(N2CC3CCC(C2)N3)c2cnc(-c3cc(O)cc4cccc(Cl)c34)c(F)c21 [Compound 44] | > 5000 | > 5
3 | Oc1cc(-c2ncc3c(N4CC5CCC(C4)N5)nc(OCC45CCCN4CCC5)c(Cl)c3n2)c2c(Cl)cccc2c1 [Compound 65] | > 5000 | 0.5 to 5
4 | CC(=O)N1CCN(c2nc(OC[C@@]34CCCN3C[C@H](F)C4)nc3c(F)c(-c4cc(O)cc5cccc(Cl)c45)ncc23)CC1 [Compound 74] | > 5000 | ≤ 0.5
5 | Oc1cc(-c2ncc3c(N4CC5CCC(C4)N5)nc(OC[C@@]45CCCN4C[C@H](F)C5)cc3n2)c2ccccc2c1 [Compound 62] | 500 to 5000 | > 5
6 | CN1CCC[C@H]1COc1nc(N2CCNCC2)c2cnc(-c3ccc(F)c4sc(N)nc34)c(F)c2n1 [Compound 73] | > 5000 | ≤ 0.5
7 | Oc1cc(-c2nc(OCC34CCCN3CCC4)c3ccc(N4CCNCC4)nc3c2F)c2c(Cl)cccc2c1 [Compound 57] | > 5000 | > 5
8 | Oc1cc(-c2ncc3c(C4CCNCC4)nc(OCC45CCCN4CCC5)nc3c2F)c2c(Cl)cccc2c1 [Compound 55] | > 5000 | > 5
9 | CN1CCC[C@H]1Cn1c(=O)nc(N2CC3CCC(C2)N3)c2cc(F)c(-c3cc(O)cc4cccc(Cl)c34)nc21 [Compound 41] | > 5000 | > 5
10 | Oc1cc(-c2ncc3c(N4CC5CCC(C4)N5)cc(OC[C@@]45CCCN4C[C@H](F)C5)nc3c2F)c2ccccc2c1 [Compound 80] | 500 to 5000 | 0.5 to 5
11 | Nc1cccc(F)c1-c1nc2cc(OCC34CCCN3CCC4)nc(N3CC4CCC(C3)N4)c2cc1Cl [Compound 37] | > 5000 | > 5
12 | Clc1cccc2cccc(-c3ncc4c(N5CCNCC5)nc(OCC56CCCN5CCC6)cc4n3)c12 [Compound 48] | 500 to 5000 | > 5
13 | CCc1cccc2cc(O)cc(-c3nc(CC)c4c(N5CC6CCC(C5)N6)nc(OC[C@@]56CCCN5C[C@H](F)C6)nc4c3F)c12 [Compound 118] | < 500 | ≤ 0.5
14 | CN1CCC[C@H]1COc1nc(N2CC3CCC(C2)N3)c2cc(F)c(-c3cccc4cccc(Cl)c34)nc2n1 [Compound 8] | 500 to 5000 | > 5
15 | O=c1cc2c(N3CC4CCC(C3)N4)nc(OCC34CCCN3CCC4)nc2cn1-c1cc(O)cc2ccccc12 [Compound 109] | > 5000 | > 5
16 | Fc1c(-c2cccc3cccc(Cl)c23)ncc2c(OCC34CCCN3CCC4)cc(N3CCNCC3)nc12 [Compound 69] | 500 to 5000 | > 5

Row | SMILES | GI50 (Ba/F3_KRAS^G12D cells) [nM] | Kd [1] [µM]
17 | N#Cc1cccc2cc(O)cc(-c3ncc4c(N5CC6CCC(C5)N6)nc(OCC56CCCN5CCC6)nc4c3F)c12 [Compound 47] | > 5000 | ≤ 0.5
18 | CCc1c(F)ccc2c(F)c(O)cc(-c3nc(C)c4c(N5CC6CCC(C5)N6)nc(OC[C@@]56CCCN5C[C@H](F)C6)nc4c3F)c12 [Compound 151] | > 5000 | –
19 | C#Cc1c(F)ccc2cc(O)cc(-c3nc(OCC)c4c(N5CC6CCC(C5)O6)nc(OC[C@@]56CCCN5C[C@H](F)C6)nc4c3F)c12 [Compound 169] | < 500 | –
20 | CCc1c(F)ccc2cc(N)cc(-c3nc(OC)c4c(N5CC6CCC(C5)N6)nc(OC[C@@]56CCCN5C[C@H](F)C6)nc4c3F)c12 [Compound 164] | < 500 | –
21 | CNC(=O)COc1nc(-c2cc(O)cc3ccccc23)c(F)c2nc(OC[C@@]34CCCN3C[C@H](F)C4)nc(N3CC4CCC(C3)N4)c12 [Compound 145] | 500 to 5000 | –
22 | C#Cc1c(F)ccc2cccc(-c3nc(OC)c4c(N5CCNCC(F)(F)C5)nc(OC[C@]56CCCN5[C@@H](COC(=O)N(C)C)CC6)nc4c3F)c12 [Compound 247] | 500 to 5000 | –
23 | CCOc1nc(-c2cc(O)cc(F)c2C(F)(F)F)c(F)c2nc(OC[C@@]34CCCN3C[C@H](F)C4)nc(N3CC4CCC(C3)N4)c12 [Compound 214] | 500 to 5000 | –
24 | C#Cc1c(F)ccc2cc(O)cc(-c3nc(OC)c4c(N5CC6CCC(C5)N6)nc(OC[C@]56CCCN5[C@@H](COC(=O)N(C)CCCCCCCCCCCCCCCC)CC6)nc4c3F)c12 [Compound 243] | < 500 | –
25 | C#Cc1c(F)ccc2cccc(-c3nc(O)c4c(N5CC6CCC(C5)N6)nc(OC[C@@]56CCCN5C[C@H](F)C6)nc4c3F)c12 [Compound 154] | 500 to 5000 | –
26 | Cc1cc(-c2nc(OC(C)C)c3c(N4CC5CCC(C4)N5)nc(OC[C@@]45CCCN4C[C@H](F)C5)nc3c2F)c(C(F)(F)F)c(N)n1 [Compound 199] | < 500 | –
27 | C#Cc1c(F)ccc2cc(O)cc(-c3nc(OCC)c4c(N5CCNC6(CCC6)C5)nc(OC[C@@]56CCCN5C[C@H](F)C6)nc4c3F)c12 [Compound 172] | < 500 | –
28 | C#Cc1c(F)ccc2cc(O)cc(-c3nc(OC)c4c(N5CC6CCC(C5)N6)nc(OCC5(CN6CCN(C(=O)CCCCCCCCCCCCCCC)CC6)CC5)nc4c3F)c12 [Compound 224] | < 500 | –
29 | CCOc1nc(-c2cc(N)cc(F)c2C(F)(F)F)c(F)c2nc(OC[C@@]34CCCN3C[C@H](F)C4)nc(N3CC4CCC(C3)N4)c12 [Compound 213] | < 500 | –
30 | CCc1cccc2cc(N)cc(-c3nc(OC)c4c(N5CC6CCC(C5)N6)nc(OC[C@@]56CCCN5C[C@H](F)C6)nc4c3F)c12 [Compound 157] | < 500 | –
31 | Oc1cc(-c2nc(C(F)F)c3c(N4CC5CCC(C4)N5)nc(OC[C@@]45CCCN4C[C@H](F)C5)nc3c2F)c2c(Cl)c(F)ccc2c1 [Compound 167] | < 500 | –

Now from value to compound:

Row | GI50 (Ba/F3_KRAS^G12D cells) [nM] | Kd [1] [µM] | SMILES
32 | < 500 | – | C#Cc1c(F)ccc2cc(O)cc(-c3nc(OC(C)C)c4c(N5CC6CCC(C5)N6)nc(OCCOC)nc4c3F)c12 [Compound 192]
33 | < 500 | – | C#Cc1c(F)ccc2cc(O)cc(-c3nc(OC)c4c(N5CC6CCC(C5)N6)nc(OC)nc4c3F)c12 [Compound 162]
34 | < 500 | – | C#Cc1c(F)ccc2cc(O)cc(-c3nc(OC(C)C)c4c(N5CC6CCC(C5)N6)nc(OCC5(CN6CCN(C)CC6)CC5)nc4c3F)c12 [Compound 230]
35 | < 500 | – | C#Cc1c(F)ccc2cc(O)cc(-c3nc(OC(C)C)c4c(N5CC6CCC(C5)N6)nc(OC[C@]56CCCN5[C@@H](COC(=O)N(C)C)CC6)nc4c3F)c12 [Compound 225]
36 | < 500 | – | C#Cc1c(F)ccc2cccc(-c3nc(OC(C)C)c4c(N5CC6CCC(C5)N6)nc(OC[C@]56CCCN5[C@@H](COC(=O)N5CCOCC5)CC6)nc4c3F)c12 [Compound 245]
37 | < 500 | – | CC#Cc1c(F)ccc2cc(O)cc(-c3nc(OC)c4c(N5CC6CCC(C5)N6)nc(OC[C@@]56CCCN5C[C@H](F)C6)nc4c3F)c12 [Compound 146]
38 | < 500 | – | C#Cc1c(F)ccc2cc(O)cc(-c3nc(OC(C)C)c4c(N5CC6CCC(C5)N6)nc(C)nc4c3F)c12 [Compound 218]
39 | < 500 | – | C#Cc1c(F)ccc2cc(O)cc(-c3nc(C(F)(F)F)c4c(N5CC6CCC(C5)N6)nc(OC[C@@]56CCCN5C[C@H](F)C6)nc4c3F)c12 [Compound 170]
40 | < 500 | – | C#Cc1c(F)ccc2cc(O)cc(-c3nc(OCC)c4c(N5CC6CCC(C5)N6)nc(OC[C@]56CCCN5[C@@H](COC(=O)N(C)C)CC6)nc4c3F)c12 [Compound 233]
41 | < 500 | – | C#Cc1c(F)ccc2cc(N)cc(-c3nc(Cl)c4c(N5CC6CCC(C5)N6)nc(OC[C@@]56CCCN5C[C@H](F)C6)nc4c3F)c12 [Compound 158]
42 | < 500 | – | Cc1nc(-c2cc(O)cc3ccc(F)c(OC(F)F)c23)c(F)c2nc(OC[C@@]34CCCN3C[C@H](F)C4)nc(N3CC4CCC(C3)N4)c12 [Compound 144]
43 | < 500 | – | C#Cc1c(F)ccc2cc(O)cc(-c3nc(OC(C)C)c4c(N5CC6CCC(C5)N6)nc(OC)nc4c3F)c12 [Compound 191]
44 | < 500 | – | C#Cc1c(F)ccc2cc(O)cc(-c3nc(OC(C)C)c4c(N5CC6CCC(C5)N6)nc(OCC5(CN6CCN(C(C)=O)CC6)CC5)nc4c3F)c12 [Compound 231]
45 | < 500 | – | C#Cc1c(F)ccc2cc(N)cc(-c3nc(OC(C)C)c4c(N5CC6CCC(C5)N6)nc(OC[C@@H]5C[C@@H](F)CN5C)nc4c3F)c12 [Compound 206]
46 | 500 to 5000 | – | C#Cc1c(F)ccc2cc(O)cc(-c3nc(O)c4c(N5CC6CCC(C5)N6)nc(OC[C@@H]5CCCN5C)nc4c3F)c12 [Compound 196]
47 | < 500 | – | C#Cc1c(F)ccc2cc(N)cc(-c3nc(OC)c4c(N5CC6CCC(C5)N6)nc(OC[C@@H]5C[C@@H](F)CN5C)nc4c3F)c12 [Compound 208]
48 | 500 to 5000 | – | C#Cc1c(F)ccc2cc(O)cc(-c3nc(O)c4c(N5CC6CCC(C5)N6)nc(NC)nc4c3F)c12 [Compound 187]
49 | < 500 | – | C#Cc1c(F)ccc2cc(O)cc(-c3nc(OCC)c4c(N5CC6CCC(C5)N6)ncnc4c3F)c12 [Compound 221]
50 | 500 to 5000 | – | C#Cc1c(F)ccc2cc(O)cc(-c3nc(OC(C)C)c4c(N5CC6CCC(C5)N6)nc(N)nc4c3F)c12 [Compound 188]
51 | < 500 | – | C#Cc1c(F)ccc2cc(O)cc(-c3nc(OC(C)C)c4c(N5CC6CCC(C5)N6)nc(OCC5(CN6CCN(C(=O)OC)CC6)CC5)nc4c3F)c12 [Compound 232]
52 | < 500 | – | C#Cc1c(F)ccc2cc(O)cc(-c3nc(OC(C)C)c4c(N5CC6CCC(C5)N6)nc(OC[C@]56CCCN5[C@H](COC(=O)N(C)C)CC6)nc4c3F)c12 [Compound 226]
